Our source for the carcinogen call values is PubChem BioAssay AID1259411 (Chemical Carcinogenesis Research Information System (CCRIS), 2018).

Each structure is given as a SMILES string. Calls of active or inactive are those of the source. The rule behind the calls is not given here.

This data set relates to rodent carcinogenicity bioassays, tumor incidence. Put plainly: CCRIS carcinogenicity studies. In short, it runs like this: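 NCI-built, expert-reviewed records of carcinogenicity and related test outcomes (mutagenicity, tumor promotion/inhibition) compiled from published and report sources, historical span 1985-2011, not updated.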

For `NC(N)=Nc1nc(CSCCN=CNS(=O)(=O)c2ccc(Br)cc2)cs1`, the carcinogen call reads like this: (Species: MOUSE, Strain/Sex: CD-1/FEMALE, Route: ORAL, Dose: 0, 50, 200, 500 MG/KG FOR 18 MO (STUDY DURATION: 18 MO), Dose: 0, 50, 200, 500 MG/KG FOR 18 MO (STUDY DURATION: 18 MO)) “inactive; negative”; (Species: MOUSE, Strain/Sex: CD-1/MALE, Route: ORAL, Dose: 0, 50, 200, 500 MG/KG FOR 18 MO (STUDY DURATION: 18 MO), Dose: 0, 50, 200, 500 MG/KG FOR 18 MO (STUDY DURATION: 18 MO)) “inactive; negative”; (Species: RAT, Strain/Sex: SPRAGUE-DAWLEY/FEMALE, Route: ORAL, Dose: 0, 50, 200, 500 MG/KG FOR 13 MO THEN 0, 50, 150, 300, 500 MG/KG FOR DURATION OF STUDY (STUDY DURATION: 24 MO), Dose: 0, 50, 200, 500 MG/KG FOR 13 MO THEN 0, 50, 150, 300, 500 MG/KG FOR DURATION OF STUDY (STUDY DURATION: 24 MO)) “inactive; negative”; (Species: RAT, Strain/Sex: SPRAGUE-DAWLEY/FEMALE, Route: ORAL, Dose: INITIALLY: 0, 50, 200, 500 MG/KG BW, THEN 0, 50, 150, 300, 500 (200 MG/KG DOSE LOWERED TO 150 MG/KG AFTER 13 MONTHS AND, Dose: INITIALLY: 0, 50, 200, 500 MG/KG BW, THEN 0, 50, 150, 300, 500 (200 MG/KG DOSE LOWERED TO 150 MG/KG AFTER 13 MONTHS AND) “inactive; negative”; (Species: RAT, Strain/Sex: SPRAGUE-DAWLEY/MALE, Route: ORAL, Dose: 0, 50, 200, 500 MG/KG FOR 13 MO THEN 0, 50, 150, 300, 500 MG/KG FOR DURATION OF STUDY (STUDY DURATION: 24 MO), Dose: 0, 50, 200, 500 MG/KG FOR 13 MO THEN 0, 50, 150, 300, 500 MG/KG FOR DURATION OF STUDY (STUDY DURATION: 24 MO)) “inactive; negative”; (Species: RAT, Strain/Sex: SPRAGUE-DAWLEY/MALE, Route: ORAL, Dose: INITIALLY: 0, 50, 200, 500 MG/KG BW, THEN 0, 50, 150, 300, 500 (200 MG/KG DOSE LOWERED TO 150 MG/KG AFTER 13 MONTHS AND, Dose: INITIALLY: 0, 50, 200, 500 MG/KG BW, THEN 0, 50, 150, 300, 500 (200 MG/KG DOSE LOWERED TO 150 MG/KG AFTER 13 MONTHS AND) “inactive; negative”.
Regarding `COP(=S)(OC)Oc1ccc(SC)c(C)c1`, the carcinogen call reads like this: (Species: MOUSE, Strain/Sex: B6C3F1/FEMALE, Route: ORAL, Dose: 0, 10, 20 PPM IN DIET, Dose: 0, 10, 20 PPM IN DIET) “inactive; negative”; (Species: Mouse, Strain/Sex: B6C3F1/Female (60/group), Route: Oral, Dose: 0, 0.1, 1, 5, 25 ppm in diet for up to 2 yr, study duration 2 yr, Dose: 0, 0.1, 1, 5, 25 ppm in diet for up to 2 yr, study duration 2 yr) “inactive; negative”; (Species: Mouse, Strain/Sex: B6C3F1/Male (60/group), Route: Oral, Dose: 0, 0.1, 1, 5, 25 ppm in diet for up to 2 yr, study duration 2 yr, Dose: 0, 0.1, 1, 5, 25 ppm in diet for up to 2 yr, study duration 2 yr) “inactive; negative”; (Species: RAT, Strain/Sex: F344/MALE, Route: ORAL, Dose: 0, 10, 20 PPM IN DIET, Dose: 0, 10, 20 PPM IN DIET) “inactive; negative”; (Species: Rat, Strain/Sex: Fischer 344/Female (50/Group), Route: Oral, Dose: 0 (corn oil), 5, 20, 100 ppm in diet for 2 yr, study duration 2 yr, Dose: 0 (corn oil), 5, 20, 100 ppm in diet for 2 yr, study duration 2 yr) “inactive; negative”; (Species: Rat, Strain/Sex: Fischer 344/Male (50/Group), Route: Oral, Dose: 0 (corn oil), 5, 20, 100 ppm in diet for 2 yr, study duration 2 yr, Dose: 0 (corn oil), 5, 20, 100 ppm in diet for 2 yr, study duration 2 yr) “inactive; negative”.
With `N#Cc1nn(-c2c(Cl)cc(C(F)(F)F)cc2Cl)c(N)c1S(=O)C(F)(F)F` (stereo not drawn), the carcinogen call reads like this: (Species: Mouse, Strain/Sex: CD-1/Female (32/Group), Route: Oral, Dose: 0, 0.1, 0.5, 10, 30 ppm of 95.4% fipronil in diet for 78 wks, study duration 78 wks, Dose: 0, 0.1, 0.5, 10, 30 ppm of 95.4% fipronil in diet for 78 wks, study duration 78 wks) “inactive; negative”; (Species: Mouse, Strain/Sex: CD-1/Male (32/Group), Route: Oral, Dose: 0, 0.1, 0.5, 10, 30 ppm of 95.4% fipronil in diet for 78 wks, study duration 78 wks, Dose: 0, 0.1, 0.5, 10, 30 ppm of 95.4% fipronil in diet for 78 wks, study duration 78 wks, Tumor Site: Type of Lesion: Liver: malignant hepatocellular tumors at highest dose) “active; positive”; (Species: Rat, Strain/Sex: CD/Female (50/Group), Route: Oral, Dose: 0, 0.5, 1.5, 30, 300 ppm of 95.4% fipronil in diet for 89-91 wks, study duration 104 wks, Dose: 0, 0.5, 1.5, 30, 300 ppm of 95.4% fipronil in diet for 89-91 wks, study duration 104 wks, Tumor Site: Type of Lesion: Thyroid: follicular cell adenoma and carcinoma at highest dose) “active; positive”; (Species: Rat, Strain/Sex: CD/Male (50/Group), Route: Oral, Dose: 0, 0.5, 1.5, 30, 300 ppm of 95.4% fipronil in diet for 89-91 wks, study duration 104 wks, Dose: 0, 0.5, 1.5, 30, 300 ppm of 95.4% fipronil in diet for 89-91 wks, study duration 104 wks, Tumor Site: Type of Lesion: Thyroid: follicular cell adenoma and carcinoma at highest dose) “active; positive”.
Consider `Nc1cc(Cl)c(N)c(Cl)c1`, for which the carcinogen call (Species: MOUSE, Strain/Sex: B6C3F1/FEMALE, Route: ORAL, Dose: 0, 1000, 3000 PPM IN DIET, Dose: 0, 1000, 3000 PPM IN DIET, Tumor Site: Type of Lesion: LIVER: HEPATOCELLULAR ADENOMA OR CARCINOMA) is “active; positive”; the carcinogen call (Species: MOUSE, Strain/Sex: B6C3F1/MALE, Route: ORAL, Dose: 0, 1000, 3000 PPM IN DIET, Dose: 0, 1000, 3000 PPM IN DIET, Tumor Site: Type of Lesion: LIVER: HEPATOCELLULAR ADENOMA OR CARCINOMA) is “active; positive”; the carcinogen call (Species: RAT, Strain/Sex: F344/FEMALE, Route: ORAL, Dose: 0, 2000, 6000 PPM IN DIET, Dose: 0, 2000, 6000 PPM IN DIET) was “inactive; negative”; the carcinogen call (Species: RAT, Strain/Sex: F344/MALE, Route: ORAL, Dose: 0, 1000, 2000 PPM IN DIET, Dose: 0, 1000, 2000 PPM IN DIET) was “inactive; negative”.
For the molecule `O=S(O)S(=O)(=O)O`, the carcinogen call is “inactive; negative” (Species: RAT, Strain/Sex: WISTAR/FEMALE, Route: ORAL, Dose: 0, 0.125, 0.25, 0.5, 1, 2% IN DIET FOR 104 WK (STUDY DURATION: 104 WK), Dose: 0, 0.125, 0.25, 0.5, 1, 2% IN DIET FOR 104 WK (STUDY DURATION: 104 WK)); “inactive; negative” (Species: RAT, Strain/Sex: WISTAR/FEMALE, Route: ORAL, Dose: 0, 0.125, 0.25, 0.5, 1, 2% IN DIET FOR 104 WK TO OFFSPRING OF RATS ADMINISTERED THE SAME DOSES IN THEIR DIETS (STUDY DUR, Dose: 0, 0.125, 0.25, 0.5, 1, 2% IN DIET FOR 104 WK TO OFFSPRING OF RATS ADMINISTERED THE SAME DOSES IN THEIR DIETS (STUDY DUR); “inactive; negative” (Species: RAT, Strain/Sex: WISTAR/MALE, Route: ORAL, Dose: 0, 0.125, 0.25, 0.5, 1, 2% IN DIET FOR 104 WK (STUDY DURATION: 104 WK), Dose: 0, 0.125, 0.25, 0.5, 1, 2% IN DIET FOR 104 WK (STUDY DURATION: 104 WK)); “inactive; negative” (Species: RAT, Strain/Sex: WISTAR/MALE, Route: ORAL, Dose: 0, 0.125, 0.25, 0.5, 1, 2% IN DIET FOR 104 WK TO OFFSPRING OF RATS ADMINISTERED THE SAME DOSES IN THEIR DIETS (STUDY DUR, Dose: 0, 0.125, 0.25, 0.5, 1, 2% IN DIET FOR 104 WK TO OFFSPRING OF RATS ADMINISTERED THE SAME DOSES IN THEIR DIETS (STUDY DUR).
Consider `C=CC(=C)CCC=C(C)C`, for which the carcinogen call (Species: Mouse, Strain/Sex: B6C3F1 / Female (50/Group), Route: Oral, Dose: 0, 0.25, 0.5, 1 g/kg in corn oil, by gavage, 5 d/wk for 104-105 wk, Dose: 0, 0.25, 0.5, 1 g/kg in corn oil, by gavage, 5 d/wk for 104-105 wk) is “inactive; negative. (authors describe results as equivocal based on incidences of hepatoce”; the carcinogen call (Species: Mouse, Strain/Sex: B6C3F1 / Male (50/Group), Route: Oral, Dose: 0, 0.25, 0.5, 1 g/kg in corn oil, by gavage, 5 d/wk for 104-105 wk, Dose: 0, 0.25, 0.5, 1 g/kg in corn oil, by gavage, 5 d/wk for 104-105 wk, Tumor Site: Type of Lesion: Liver: hepatocellular adenoma (26/50, 41/50, 43/50), hepatocellular carcinoma (14/50, 20/50, 28/50), hepatocellular aden, Tumor Site: Type of Lesion: Liver: hepatocellular adenoma (26/50, 41/50, 43/50), hepatocellular carcinoma (14/50, 20/50, 28/50), hepatocellular aden) was “active; positive (authors describe as clear evidence)”; the carcinogen call (Species: Rat, Strain/Sex: F344/N / Female (50/Group), Route: Oral, Dose: 0, 0.25, 0.5, 1 g/kg in corn oil, by gavage, 5 d/wk for 105 wk, Dose: 0, 0.25, 0.5, 1 g/kg in corn oil, by gavage, 5 d/wk for 105 wk) was “inactive; negative. (authors describe findings as equivocal based on renal tubule adenoma”; the carcinogen call (Species: Rat, Strain/Sex: F344/N / Male (50/Group), Route: Oral, Dose: 0, 0.25, 0.5, 1 g/kg in corn oil, by gavage, 5 d/wk for 105 wk, Dose: 0, 0.25, 0.5, 1 g/kg in corn oil, by gavage, 5 d/wk for 105 wk, Tumor Site: Type of Lesion: Kidney: renal tubule adenoma (standard evaluation - 0/50, 4/50, 8/50, standard and extended evaluations combined - 0/50) is “active; positive (authors describe as clear evidence)”.
